What was measured:
Assay type in all cases: functional
[1] = tested on: Pseudoperonospora cubensis; assay: Fungicidal activity against Pseudoperonospora cubensis assessed as cucumber downy mildew disease control at 500 ppm foliar application 24 hr before inoculation onto the abaxial(treated) surface of leaf by preventive manner
[2] = tested on: Pseudoperonospora cubensis; assay: Fungicidal activity against Pseudoperonospora cubensis assessed as cucumber downy mildew disease control at 125 ppm foliar application 24 hr before inoculation onto the adaxial(treated) surface of leaf by preventive manner
Botrytis cinerea [3] = assay: Fungicidal activity against Botryotinia fuckeliana assessed as cucumber gray mold disease control at 500 ppm treated on upper surface of leaf 24 hr before inoculation at 22 +/- 2 degC measured after 3 days by preventive manner
Podosphaera fuliginea [4] = assay: Fungicidal activity against Podosphaera fuliginea assessed as cucumber powdery mildew disease control at 7.8 ppm treated on upper surface of leaf 24 hr before inoculation at 23 +/- 2 degC measured after 10 days by preventive manner
Podosphaera fuliginea [5] = assay: Fungicidal activity against Podosphaera fuliginea assessed as cucumber powdery mildew disease control at 500 ppm treated on upper surface of leaf 24 hr before inoculation at 23 +/- 2 degC measured after 10 days by preventive manner
[6] = tested on: Pseudoperonospora cubensis; assay: Fungicidal activity against Pseudoperonospora cubensis assessed as cucumber downy mildew disease control at 500 ppm foliar application 24 hr before inoculation onto the adaxial(treated) surface of leaf by preventive manner
Podosphaera fuliginea [7] = assay: Fungicidal activity against Podosphaera fuliginea assessed as cucumber powdery mildew disease control at 31.3 ppm treated on upper surface of leaf 24 hr before inoculation at 23 +/- 2 degC measured after 10 days by preventive manner
Botrytis cinerea [8] = assay: Fungicidal activity against Botryotinia fuckeliana assessed as cucumber gray mold disease control at 31.3 ppm treated on upper surface of leaf 24 hr before inoculation at 22 +/- 2 degC measured after 3 days by preventive manner
Botrytis cinerea [9] = assay: Fungicidal activity against Botryotinia fuckeliana assessed as cucumber gray mold disease control at 125 ppm treated on upper surface of leaf 24 hr before inoculation at 22 +/- 2 degC measured after 3 days by preventive manner
Botrytis cinerea [10] = assay: Fungicidal activity against Botryotinia fuckeliana assessed as cucumber gray mold disease control at 7.8 ppm treated on upper surface of leaf 24 hr before inoculation at 22 +/- 2 degC measured after 3 days by preventive manner
[11] = tested on: Pseudoperonospora cubensis; assay: Fungicidal activity against Pseudoperonospora cubensis assessed as cucumber downy mildew disease control at 7.8 ppm foliar application 24 hr before inoculation onto the adaxial(treated) surface of leaf by preventive manner
[12] = tested on: Pseudoperonospora cubensis; assay: Fungicidal activity against Pseudoperonospora cubensis assessed as cucumber downy mildew disease control at 31.3 ppm foliar application 24 hr before inoculation onto the abaxial(treated) surface of leaf by preventive manner
[13] = tested on: Pseudoperonospora cubensis; assay: Fungicidal activity against Pseudoperonospora cubensis assessed as cucumber downy mildew disease control at 125 ppm foliar application 24 hr before inoculation onto the abaxial(treated) surface of leaf by preventive manner
[14] = tested on: Pseudoperonospora cubensis; assay: Fungicidal activity against Pseudoperonospora cubensis assessed as cucumber downy mildew disease control at 7.8 ppm foliar application 24 hr before inoculation onto the abaxial(treated) surface of leaf by preventive manner
[15] = tested on: Pseudoperonospora cubensis; assay: Fungicidal activity against Pseudoperonospora cubensis assessed as cucumber downy mildew disease control at 125 ppm foliar application 24 hr after inoculation by curative manner
[16] = tested on: Pseudoperonospora cubensis; assay: Fungicidal activity against Pseudoperonospora cubensis assessed as cucumber downy mildew disease control at 31.3 ppm foliar application 24 hr before inoculation onto the adaxial(treated) surface of leaf by preventive manner
[17] = tested on: Pseudoperonospora cubensis; assay: Fungicidal activity against Pseudoperonospora cubensis assessed as cucumber downy mildew disease control at 31.3 ppm foliar application 24 hr after inoculation by curative manner
[18] = tested on: Pseudoperonospora cubensis; assay: Fungicidal activity against Pseudoperonospora cubensis assessed as cucumber downy mildew disease control at 2 ppm foliar application 24 hr before inoculation onto the adaxial(treated) surface of leaf by preventive manner
[19] = tested on: Pseudoperonospora cubensis; assay: Fungicidal activity against Pseudoperonospora cubensis assessed as cucumber downy mildew disease control at 2 ppm foliar application 24 hr before inoculation onto the abaxial(treated) surface of leaf by preventive manner
[20] = tested on: Pseudoperonospora cubensis; assay: Fungicidal activity against Pseudoperonospora cubensis assessed as cucumber downy mildew disease control at 2 ppm foliar application 24 hr after inoculation by curative manner
[21] = tested on: Pseudoperonospora cubensis; assay: Fungicidal activity against Pseudoperonospora cubensis assessed as cucumber downy mildew disease control at 7.8 ppm foliar application 24 hr after inoculation by curative manner

| SMILES | Activity [1] [%] | Activity (Botrytis cinerea [3]) [%] | Activity (Podosphaera fuliginea [4]) [%] | Activity [6] [%] | Activity (Botrytis cinerea [10]) [%] | Activity [11] [%] | also measured |
| --- | --- | --- | --- | --- | --- | --- | --- |
| CNC(=O)C(OC)c1ccccc1CO/N=C(/C)c1ccc(C(F)(F)F)cc1 (racemic) | <90 | 50 | 90 |  |  |  | Activity [2]: 90% |
| CNC(=O)C(OC)c1ccccc1CO/N=C(/C)c1ccc(OC)cc1 (racemic) | <90 | 50 |  | 90 |  |  | Activity (Podosphaera fuliginea [5]): 90% |
| CCCCOc1ccc(/C(C)=N/OCc2ccccc2C(OC)C(=O)NC)cc1 (racemic) | <90 |  |  | 90 |  |  | Activity (Podosphaera fuliginea [7]): 90%; Activity (Botrytis cinerea [8]): 50% |
| CNC(=O)C(OC)c1ccccc1CO/N=C(\C)c1ccc(O)cc1 (racemic) | <90 | <50 |  | 90 |  |  | Activity (Podosphaera fuliginea [5]): <90% |
| CNC(=O)C(OC)c1ccccc1CO/N=C(\C)c1ccc([N+](=O)[O-])cc1 (racemic) | <90 |  |  | 90 |  |  | Activity (Podosphaera fuliginea [5]): 90%; Activity (Botrytis cinerea [9]): 50% |
| CNC(=O)C(OC)c1ccccc1CO/N=C(\C)c1ccc(-c2ccccc2)cc1 (racemic) | <90 |  | 90 | <90 | 50 |  |  |
| CNC(=O)C(OC)c1ccccc1CO/N=C(\C)c1ccc(Cl)cc1Cl (racemic) | <90 |  |  |  |  |  | Activity (Podosphaera fuliginea [7]): 90%; Activity (Botrytis cinerea [8]): 50% |
| CNC(=O)C(OC)c1ccccc1CO/N=C(\C)c1ccc(Cl)c(Cl)c1 (racemic) |  |  | 90 |  | 50 | 90 | Activity [12]: 90% |
| CNC(=O)C(OC)c1ccccc1CO/N=C(\C)c1ccc(C)cc1C (racemic) | 90 |  |  |  |  |  | Activity (Podosphaera fuliginea [7]): 90%; Activity (Botrytis cinerea [8]): 50%; Activity [2]: 90% |
| CNC(=O)C(OC)c1ccccc1CO/N=C(\C)c1cc(C)ccc1C (racemic) | <90 | <50 |  | 90 |  |  | Activity (Podosphaera fuliginea [5]): 90% |
| CNC(=O)C(OC)c1ccccc1CO/N=C(\C)c1ccc(C)c(C)c1 (racemic) |  |  | 90 |  |  | 90 | Activity (Botrytis cinerea [8]): 50%; Activity [13]: 90% |
| CNC(=O)C(OC)c1ccccc1CO/N=C(\C)c1cc(C)cc(C)c1C (racemic) | <90 | 50 | 90 | 90 |  |  |  |
| CC/C(=N\OCc1ccccc1C(OC)C(=O)NC)c1ccc(Cl)cc1 (racemic) |  |  | 90 |  | 50 | 90 | Activity [14]: 90% |
| CCC/C(=N\OCc1ccccc1C(OC)C(=O)NC)c1ccc(Cl)cc1 (racemic) |  |  | 90 |  |  | 90 | Activity (Botrytis cinerea [9]): 50%; Activity [12]: 90% |
| CNC(=O)C(OC)c1ccccc1CO/N=C(/SC)c1ccc(Cl)cc1 (racemic) | 97 | 50 |  | 100 |  | 100 | Activity [15]: 87%; Activity (Podosphaera fuliginea [7]): 90%; Activity [2]: 100%; Activity [16]: 100%; Activity [17]: 60%; Activity [18]: 100%; Activity [14]: 40%; Activity [19]: 20%; Activity [20]: 10%; Activity [12]: 50%; Activity [21]: 35%; Activity [13]: 64% |
| CNC(=O)C(OC)c1ccccc1CO/N=C(/C)c1ccc(Cl)cc1 (racemic) | <90 | 50 |  |  |  |  | Activity (Podosphaera fuliginea [7]): 90%; Activity [2]: 90% |
| CCOc1ccc(/C(C)=N/OCc2ccccc2C(OC)C(=O)NC)cc1 (racemic) | <90 |  | 90 | 90 |  |  | Activity (Botrytis cinerea [8]): 50% |

| SMILES | Activity [1] [%] | Activity (Botrytis cinerea [3]) [%] | Activity (Podosphaera fuliginea [4]) [%] | Activity [6] [%] | Activity (Botrytis cinerea [10]) [%] | Activity [11] [%] | also measured |
| --- | --- | --- | --- | --- | --- | --- | --- |
| CNC(=O)C(OC)c1ccccc1CO/N=C(\C)c1ccc(OC)cc1 (racemic) | 90 |  |  | 100 | 50 | 0 | Activity [15]: 75%; Activity (Podosphaera fuliginea [7]): 90%; Activity [2]: 100%; Activity [16]: 100%; Activity [17]: 20%; Activity [18]: 0%; Activity [14]: 0%; Activity [19]: 0%; Activity [20]: 0%; Activity [12]: 0%; Activity [21]: 0%; Activity [13]: 50% |
| CNC(=O)C(OC)c1ccccc1CO/N=C(\C)c1ccc(C(C)(C)C)cc1 (racemic) | <90 |  | 90 | 90 |  |  | Activity (Botrytis cinerea [8]): 50% |
| CCc1ccc(/C(C)=N/OCc2ccccc2C(OC)C(=O)NC)cc1 (racemic) | 90 |  | 90 |  | 50 | 90 |  |
| CNC(=O)C(OC)c1ccccc1CO/N=C(\C)c1ccc(C)cc1 (racemic) | 90 |  | 90 |  | 50 | 90 |  |
| CNC(=O)C(OC)c1ccccc1CO/N=C(\C)c1ccc(Br)cc1 (racemic) |  |  | 90 |  | 50 | 90 | Activity [12]: 90% |
| CNC(=O)C(OC)c1ccccc1CO/N=C(\C)c1ccc(F)cc1 (racemic) |  |  | 90 |  |  |  | Activity (Botrytis cinerea [8]): 50%; Activity [16]: 90%; Activity [12]: 90% |
| CNC(=O)C(OC)c1ccccc1CO/N=C(\C)c1ccc(C(F)(F)F)cc1 (racemic) | 100 |  | 90 | 100 | 50 | 100 | Activity [15]: 75%; Activity [2]: 100%; Activity [16]: 100%; Activity [17]: 70%; Activity [18]: 100%; Activity [14]: 40%; Activity [19]: 15%; Activity [20]: 25%; Activity [12]: 91%; Activity [21]: 40%; Activity [13]: 96% |
| CNC(=O)C(OC)c1ccccc1CO/N=C(\C)c1cccc(C(F)(F)F)c1 (racemic) | 90 |  | 90 |  | 50 | 90 |  |
| CNC(=O)C(OC)c1ccccc1CO/N=C(\C)c1ccccc1C(F)(F)F (racemic) | <90 | <50 |  | <90 |  |  | Activity (Podosphaera fuliginea [5]): 90% |
| CNC(=O)C(OC)c1ccccc1CO/N=C(\C)c1ccc(Cl)cc1 (racemic) | 97 |  | 90 | 100 | 50 | 100 | Activity [15]: 70%; Activity [2]: 100%; Activity [16]: 100%; Activity [17]: 50%; Activity [18]: 0%; Activity [14]: 0%; Activity [19]: 0%; Activity [20]: 0%; Activity [12]: 70%; Activity [21]: 5%; Activity [13]: 85% |
| CNC(=O)C(OC)c1ccccc1CO/N=C(\C)c1cccc(Cl)c1 (racemic) |  |  | 90 |  | 50 | 90 | Activity [12]: 90% |
| CNC(=O)C(OC)c1ccccc1CO/N=C(\C)c1ccccc1Cl (racemic) | <90 | 50 |  | 90 |  |  | Activity (Podosphaera fuliginea [5]): 90% |
| CNC(=O)C(OC)c1ccccc1CO/N=C(\C)c1ccccc1 (racemic) | <90 |  |  | <90 |  |  | Activity (Podosphaera fuliginea [7]): 90%; Activity (Botrytis cinerea [8]): 50% |
| CNC(=O)C(OC)c1ccccc1CO/N=C/c1ccccc1 (racemic) | <90 | 50 |  | <90 |  |  | Activity (Podosphaera fuliginea [5]): <90% |
| CNC(=O)C(OC)c1ccccc1COCc1ccccc1 (racemic) | <90 | <50 |  | 90 |  |  | Activity (Podosphaera fuliginea [5]): <90% |
| CNC(=O)C(OC)c1ccccc1COC(=O)c1ccccc1 (racemic) | <90 | <50 |  | 90 |  |  | Activity (Podosphaera fuliginea [5]): <90% |
| CNC(=O)C(OC)c1ccccc1Oc1ccccc1 (racemic) | <90 | <50 |  | <90 |  |  | Activity (Podosphaera fuliginea [5]): <90% |
